Test results as given in patent US5723606A, “Condensed benzazepine derivative and pharmaceutical composition thereof” (priority 1993, dated 1998).
Structures can show the parent of a compound that is named as a salt. Where two headings read alike, the source gives them in different places.

What was measured:
[1] = target: T1, arginine vasopressin V1 receptor (Rattus norvegicus, UniProt P30560); assay: V1 receptor binding assay; settings: for antagonism on V1 receptor (in words): compared with OPC-31260 and OPC-21268, cf. Table 1
T1 construct: A rat liver membrane sample was prepared; from tissue; host or cells: rat liver membranes
T1 sequence (P30560 whole entry): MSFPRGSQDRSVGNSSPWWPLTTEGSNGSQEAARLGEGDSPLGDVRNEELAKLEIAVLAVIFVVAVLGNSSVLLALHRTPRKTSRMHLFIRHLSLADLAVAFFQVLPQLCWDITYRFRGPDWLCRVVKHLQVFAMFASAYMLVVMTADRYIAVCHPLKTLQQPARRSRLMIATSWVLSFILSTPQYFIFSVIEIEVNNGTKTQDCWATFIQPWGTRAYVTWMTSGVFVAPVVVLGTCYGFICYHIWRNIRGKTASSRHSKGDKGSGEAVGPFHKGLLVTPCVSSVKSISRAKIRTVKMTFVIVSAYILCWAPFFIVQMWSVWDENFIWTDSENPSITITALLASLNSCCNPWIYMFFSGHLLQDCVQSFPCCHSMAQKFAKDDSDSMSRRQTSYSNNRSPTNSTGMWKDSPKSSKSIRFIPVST
Procedure: Usefulness of the compounds of the present invention was confirmed by the following tests. (1) V1 receptor binding assay
A rat liver membrane sample was prepared in accordance with the method of Nakamura et al. (J. Biol. Chem., 258, 9283 (1983)), and [^3 H]-Arg-vasopressin (2 nM, specific activity =75.8 Ci/mmol), 70 μg of the membrane sample and each drug to be tested (10^-8 to 10^-4 M) were incubated at 30° C. for 30 minutes in 250 μl of 100 mM Tris-HCl buffer (pH 8.0) containing 5 mM magnesium chloride, 1mM ethylenediaminetetraacetic acid (EDTA) and 0.1% bovine serum albumin (BSA). Thereafter, the incubation solution was sucked off using a cell harvester and free ligand and excess buffer were removed by passing the reaction mixture through a glass filter (GF/B), thereby trapping receptor-bound labeled ligand on the glass filter. The glass filter was taken out, thoroughly dried and then mixed with a liquid scintillation cocktail, and the amount of the membrane-bound [^3 H]-vasopressin was measured using a liquid scintillation counter to calculate the inhibition ratio by the following formula. [formula] C1 : amount of [^3 H]-vasopressin bound to the membrane in the coexistence of known amount of each drug to be tested and [^3 H]-vasopressin
C0 : amount of [^3 H]-vasopressin bound to the membrane when the drug to be tested was not added
B1 : amount of [^3 H]-vasopressin bound to the membrane in the presence of excess vasopressin (10^-6 M)
[formula] [L]: concentration of radioactive ligand KD: dissociation constant calculated from Scatchard plot
Negative logarithm of the thus calculated value was used as pKi value.

[2] = target: arginine vasopressin V2 receptor (Oryctolagus cuniculus, UniProt G1TA00); assay: V2 receptor binding assay; design: species or system rabbit; settings: for antagonism on V2 receptor (in words): compared with OPC-31260 and OPC-21268, cf. Table 1
Sequence of arginine vasopressin V2 receptor (G1TA00 78-446): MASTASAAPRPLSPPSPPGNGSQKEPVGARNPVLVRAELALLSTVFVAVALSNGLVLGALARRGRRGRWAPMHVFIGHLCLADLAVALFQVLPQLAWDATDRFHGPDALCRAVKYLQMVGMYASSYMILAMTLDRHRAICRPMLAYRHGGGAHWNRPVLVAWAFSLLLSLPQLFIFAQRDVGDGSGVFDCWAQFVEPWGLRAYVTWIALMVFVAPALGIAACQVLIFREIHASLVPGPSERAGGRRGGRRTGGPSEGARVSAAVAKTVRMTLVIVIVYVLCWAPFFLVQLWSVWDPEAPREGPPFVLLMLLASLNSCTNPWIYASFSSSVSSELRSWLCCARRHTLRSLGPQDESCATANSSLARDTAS

V2 receptor = assay: V2 antagonism (water diuresis) in conscious rats (oral administration); type: in vivo, rat
Procedure: (4) V2 antagonism (water diuresis) in conscious rats (oral administration)
Each compound to be tested was suspended in 0.5% methylcellulose aqueous solution and orally administered in a dose of 3 mg/kg to male Wister rats (body weight, 270 to 300 g) which had been subjected to fasting with no water for 16 to 20 hours. Using a metabolic cage, urine samples were collected just after the administration of each test sample and until 4 hours after the administration to measure the amount of urine.

V1 receptor = assay: V1 antagonism in conscious rats (oral administration); type: in vivo, rat; settings: 1 mg/kg oral, from 30 minutes to 6 hours after administration, AVP 30 mU/kg i.v.
[3] = rat liver membrane, [3H]-Arg-vasopressin 2 nM, read-out: Binding activity on arginine vasopressin V1 receptor (pki) (converted)

SMILES	Ki [1, 3]	antagonism on V2 receptor (in words) [2]	antagonism on V1 receptor (in words) [1]	also measured
Cc1nc2c([nH]1)-c1ccccc1N(C(=O)c1ccc(NC(=O)c3ccccc3C)cc1)CC2 [Example 24, 2-methyl-4'-[(2-methyl-1,4,5,6-tetrahydroimidazo[4,5-d][1]benzazepin-6-yl)carbonyl]benzanilide hydrochloride]	17 nM			
CC(C)O.Cl.NCC(=O)Nc1nc2c(s1)CCN(C(=O)c1ccc(NC(=O)c3ccccc3-c3ccccc3)cc1)c1ccccc1-2 [Example 17, 4'-[(2-glycylamino-5,6-dihydro-4H-thiazolo[5,4-d][1]benzazepin-6-yl)carbonyl]-2-phenylbenzanilide 2-propylalcohol hydrochloride]	0.912 nM	excellent antagonisms	excellent antagonisms	
Cc1nc2c([nH]1)-c1ccccc1N(C(=O)c1ccc(NC(=O)c3ccccc3OC(C)C)cc1)CC2 [Example 27, 2-isopropoxy-4'-[(2-methyl-1,4,5,6-tetrahydroimidazo[4,5-d][1]benzazepin-6-yl)carbonyl]benzanilide hydrochloride]	6.17 nM			
Cc1nc2c(o1)-c1ccccc1N(C(=O)c1ccc(NC(=O)c3ccccc3-c3ccccc3)cc1)CC2 [Example 18(1), 4'-[(2-Methyl-5,6-dihydro-4H-oxazolo[4,5-d][1]benzazepin-6-yl)carbonyl]-2-phenylbenzanilide]	4.27 nM			
NCCc1nc2c(s1)CCN(C(=O)c1ccc(NC(=O)c3ccccc3-c3ccccc3)cc1)c1ccccc1-2 [Example 15, 4'-[(2-aminoethyl-5,6-dihydro-4H-thiazolo[5,4-d][1]benzazepin-6-yl)carbonyl]-2-phenylbenzanilide hydrochloride]				Ki [1]: 1.23 nM
Cc1nc(Cc2nc3c(s2)CCN(C(=O)c2ccc(NC(=O)c4ccccc4-c4ccccc4)cc2)c2ccccc2-3)c[nH]1 [Example 6, 4'-[[2-[4-(2-methylimidazolyl)methyl]-5,6-dihydro-4H-thiazolo[5,4-d][1]benzazepin-6-yl)carbonyl]-2-phenylbenzanilide.2HCl]	11.2 nM			
Cc1nc2c([nH]1)-c1ccccc1N(C(=O)c1ccc(NC(=O)c3ccccc3-c3ccccc3)cc1)CC2.Cl [Example 18(2), 4'-[(2-methyl-1,4,5,6-tetrahydroimidazo[4,5-d][1]benzazepin-6-yl)carbonyl]-2-phenylbenzanilide hydrochloride]		excellent antagonisms	excellent antagonisms	amount of urine relative to the solvent-administered group (V2 receptor; po, 3 mg/kg): 8-10 times; amount of urine relative to the solvent-administered group (V2 receptor; po, 3 mg/kg, 2 h): 47-95 times; Pressure increase by AVP (diastolic blood pressure, pre-dose increase = 100%) (V1 receptor): ≤ 50%; Ki [1]: 0.891 nM
O=C(Nc1ccc(C(=O)N2CCc3sc(Cc4cccnc4)nc3-c3ccccc32)cc1)c1ccccc1-c1ccccc1 [Example 8, 4'-[[2-(3-pyridylmethyl)-5,6-dihydro-4H-thiazolo[5,4-d][1]benzazepin-6-yl)carbonyl]-2-phenylbenzanilide hydrochloride]	18.2 nM			
Cc1nc2c([nH]1)-c1ccccc1N(C(=O)c1ccc(NC(=O)C3(c4ccccc4)CCCC3)cc1)CC2 [Example 38, N-[4-[(2-methyl-1,4,5,6-tetrahydroimidazo[4,5-d][1]benzazepin-6-yl)carbonyl]phenylcyclopentanecarboxamido hydrochloride]	5.75 nM			
NCCCCc1nc2c([nH]1)-c1ccccc1N(C(=O)c1ccc(NC(=O)c3ccccc3-c3ccccc3)cc1)CC2 [Example 37, 4'-[[2-(4-aminobutyl)-1,4,5,6-tetrahydroimidazo[4,5-d][1]benzazepin-6-yl]carbonyl]-2-phenylbenzanilide.2 HCl]	0.324 nM	excellent antagonisms	excellent antagonisms	
CN(C)CCCc1nc2c(s1)CCN(C(=O)c1ccc(NC(=O)c3ccccc3-c3ccccc3)cc1)c1ccccc1-2 [Example 12, 4'-[[2-(3-dimethylaminopropyl)-5,6-dihydro-4H-thiazolo[5,4-d][1]benzazepin-6-yl)carbonyl]-2-phenylbenzanilide hydrochloride]	3.02 nM			
Nc1nc2c(s1)CCN(C(=O)c1ccc(NC(=O)c3ccccc3-c3ccccc3)cc1)c1ccccc1-2 [Example 1, 4'-[(2-amino-5,6-dihydro-4H-thiazolo[5,4-d][1]benzazepin-6-yl)carbonyl]-2-phenylbenzanilide hydrobromate]	4.68 nM			
Cc1ccccc1C(=O)Nc1ccc(C(=O)N2CCCC(N(C)C)c3ccccc32)cc1 (centres unmarked) [(1), reference compound]				Binding activity on arginine vasopressin V2 receptor (pki) ([2]; rabbit renal medulla membrane, [3H]-Arg-vasopressin 2 nM): 8.01; amount of urine relative to the solvent-administered group (V2 receptor; 3 mg/kg oral, from 2 hours to 4 hours after administration, fasted conscious rats): almost the same as that in the solvent-administered group; amount of urine relative to the solvent-administered group (V2 receptor; po, 3 mg/kg, 2 h): 11 times; Binding activity on arginine vasopressin V1 receptor (pki) ([1]; rat liver membrane, [3H]-Arg-vasopressin 2 nM): 6.71
Cc1ccc(-c2ccccc2C(=O)Nc2ccc(C(=O)N3CCc4sc(NC(=N)N)nc4-c4ccccc43)cc2)cc1 [Example 4, 4'-[(2-guanidino-5,6-dihydro-4H-thiazolo[5,4-d][1]benzazepin-6-yl)carbonyl]-2-(4-methylphenyl)benzanilide hydrobromate]	4.37 nM			
CN(C)CCNc1nc2c(s1)CCN(C(=O)c1ccc(NC(=O)c3ccccc3-c3ccccc3)cc1)c1ccccc1-2 [Example 10, 4'-[(2-dimethylaminoethylamino-5,6-dihydro-4H-thiazolo[5,4-d][1]benzazepin-6-yl)carbonyl]-2-phenylbenzanilide.2 HCl]	2.45 nM			
CCCc1nc2c([nH]1)-c1ccccc1N(C(=O)c1ccc(NC(=O)c3ccccc3-c3ccccc3)cc1)CC2.Cl [Example 21, 4'-[(2-propyl-1,4,5,6-tetrahydroimidazo[4,5-d][1]benzazepin-6-yl)carbonyl]-2-phenylbenzanilide hydrochloride]	1.82 nM	excellent antagonisms	excellent antagonisms	amount of urine relative to the solvent-administered group (V2 receptor; po, 3 mg/kg): 8-10 times; amount of urine relative to the solvent-administered group (V2 receptor; po, 3 mg/kg, 2 h): 47-95 times; Pressure increase by AVP (diastolic blood pressure, pre-dose increase = 100%) (V1 receptor): ≤ 50%
Cl.O=C(Nc1ccc(C(=O)N2CCc3nc(C4CC4)[nH]c3-c3ccccc32)cc1)c1ccccc1-c1ccccc1 [Example 23, 4'-[(2-cyclopropyl-1,4,5,6-tetrahydroimidazo[4,5-d][1]benzazepin-6-yl)carbonyl]-2-phenylbenzanilide hydrochloride]		excellent antagonisms	excellent antagonisms	amount of urine relative to the solvent-administered group (V2 receptor; po, 3 mg/kg): 8-10 times; amount of urine relative to the solvent-administered group (V2 receptor; po, 3 mg/kg, 2 h): 47-95 times; Pressure increase by AVP (diastolic blood pressure, pre-dose increase = 100%) (V1 receptor): ≤ 50%
N=C(N)Nc1nc2c(s1)CCN(C(=O)c1ccc(NC(=O)c3ccccc3-c3ccccc3)cc1)c1ccccc1-2 [Example 2, 4'-[(2-guanidino-5,6-dihydro-4H-thiazolo[5,4-d][1]benzazepin-6-yl)carbonyl]-2-phenylbenzanilide hydrobromate]	1.51 nM			
CCc1nc2c([nH]1)-c1ccccc1N(C(=O)c1ccc(NC(=O)c3ccccc3-c3ccccc3)cc1)CC2.Cl [Example 20, 4'-[(2-ethyl-1,4,5,6-tetrahydroimidazo[4,5-d][1]benzazepin-6-yl)carbonyl]-2-phenylbenzanilide hydrochloride]	0.661 nM	excellent antagonisms	excellent antagonisms	amount of urine relative to the solvent-administered group (V2 receptor; po, 3 mg/kg): 8-10 times; amount of urine relative to the solvent-administered group (V2 receptor; po, 3 mg/kg, 2 h): 47-95 times
